Reference: patent publication US20240217973A1, “IMIDAZOPYRIDINE COMPOUNDS AND USE THEREOF” (MEDSHINE DISCOVERY INC., priority 2021, published 2024)

What was measured:
[1] = Pharmacokinetic evaluation of compounds in dogs; type: in vivo; conditions: dog, plasma, beagle dogs
Description: Experimental purpose: To test the in vivo pharmacokinetic data of compounds in beagle dogs.
(§1) The compound was mixed with the solvent 5% DMSO/5% Solutol/90% H2O, vortexed and sonicated to prepare a 0.5 mg/mL clear solution. The beagle dogs were administered the candidate compound solution intravenously. Whole blood was collected for a certain period of time, and plasma was prepared. The drug concentration was analyzed by LC-MS/MS method, and pharmacokinetic parameters were calculated.
as §1, with “administered” for “administered the”, “solutions orally.” for “solution intravenously.”, “LC- MS/MS” for “LC-MS/MS”

[2] = Hepatocyte metabolic stability experiment (HMS), M; type: in vitro ADME; conditions: mouse, M hepatocytes, read-out: HMS CLint(liver)
Description: (§2) Experimental operations: 198 μL of hepatocyte suspension (0.51×10^6 cells/mL) was added to the preheated incubation plate, and 198 μL of culture medium without hepatocytes was added to T0-MC and T120-MC incubation plates for the culture medium control group, and all incubation plates were pre-incubated for 10 minutes in a 37° C. incubator. Then 2 μL of the working solution of the test and control compounds were added and mixed well, and the incubation plate was immediately put into the plate shaker in the incubator, the rotation speed was adjusted to about 650 rpm, and the timer and the reaction were started. 2 duplicate samples for each compound were prepared at each time point. Incubation conditions: 37° C., saturated humidity, and containing 5% CO2. In the test system, the final concentration of the test compound was 1 μM, the final concentration of the control compound was 3 μM, the final concentration of hepatocytes was 0.5×10^6 cells/mL, and the final concentration of the total organic solvent was 0.96%, of which the final concentration of DMSO was 0.1%. […] All samples were mixed and analyzed by LC-MS/MS method. […]

[3] = Hepatocyte metabolic stability experiment (HMS), H; type: in vitro ADME; conditions: human, H hepatocytes, read-out: HMS CLint(liver)
Description: as §2

BTK kinase = BTK kinase (Homo sapiens (Human), UniProt Q06187); test: BTK kinase experiment (ADP-Glo); type: biochemical; conditions: 2 μM ATP, PolyE4Y1 substrate, 30 minutes pre-incubation
Sequence of BTK kinase (Q06187 whole entry): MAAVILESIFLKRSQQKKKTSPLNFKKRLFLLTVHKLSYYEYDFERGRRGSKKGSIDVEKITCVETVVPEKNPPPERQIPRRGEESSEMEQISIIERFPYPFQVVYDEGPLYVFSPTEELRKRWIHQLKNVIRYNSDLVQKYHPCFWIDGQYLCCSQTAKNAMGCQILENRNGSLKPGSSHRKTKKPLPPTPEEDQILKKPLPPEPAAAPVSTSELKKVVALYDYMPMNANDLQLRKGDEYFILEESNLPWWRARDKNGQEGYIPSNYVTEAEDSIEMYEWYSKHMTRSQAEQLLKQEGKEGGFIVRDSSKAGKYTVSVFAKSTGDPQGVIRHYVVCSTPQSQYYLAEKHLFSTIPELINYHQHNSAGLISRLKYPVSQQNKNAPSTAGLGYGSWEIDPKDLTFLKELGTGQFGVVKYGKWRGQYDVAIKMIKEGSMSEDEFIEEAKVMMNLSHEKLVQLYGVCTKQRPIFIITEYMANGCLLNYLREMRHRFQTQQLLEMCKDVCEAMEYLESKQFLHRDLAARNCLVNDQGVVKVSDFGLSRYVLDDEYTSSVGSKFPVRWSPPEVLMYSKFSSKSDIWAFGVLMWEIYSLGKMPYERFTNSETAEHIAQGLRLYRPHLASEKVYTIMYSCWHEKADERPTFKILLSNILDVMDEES
Description: BTK kinase, PolyE4Y1 substrate and Kinase assay buffer III were purchased from Signalchem; ADP-Glo Kinase Assay was purchased from Promega; Nivo multi-label analyzer (PerkinElmer).
1× buffer preparation (which was prepared and used immediately): Kinase assay buffer III was diluted with ddH2O to 1× assay buffer for later use.
The compound to be tested was diluted with 100% DMSO to 10 μM as the first concentration, and followed by a 5-fold dilution to the 8th concentration using a multi-channel pipette, i.e., it was diluted from 10 μM to 0.128 nM.
Each gradient of the compound to be tested was diluted into a working solution with 5% DMSO using 1× buffer, 1 μL/well was added to the corresponding well, and a double-replicate well experiment was set up. 2 μL of BTK enzyme (4 ng) was add to each well and incubating at 25° C. for 30 minutes. After the incubation was completed, 2 μL of a mixture of substrate and ATP (2 μM ATP, 0.2 μg/μL PolyE4Y1) was added to each well and incubating at 25° C. for 120 minutes. At this point, the final concentration gradient of the compound was diluted from 100 nM to 0.00128 nM. After the reaction was completed, 5 μL of ADP-Glo reagent was added to each well, and the reaction continued at 25° C. for 40 minutes. After the reaction was completed, 10 μL of kinase detection reagent was added to each well. After reacting at 25° C. for 30 minutes, PerkinElmer Nivo multi-label analyzer was used to read the chemiluminescence, and the integration time was 0.5 seconds.
Raw data was converted into inhibition rate using the equation: (Sample−Min)/(Max−Min)*100%. The IC50 value could then be derived by performing a curve fit using four-parameter (which was obtained using the “log(inhibitor) vs. response-Variable slope” mode in GraphPad Prism).

plasma proteins = test: Plasma protein binding experiment (PPB), C; type: in vitro ADME, cynomolgus monkey; conditions: 2 μM, 4 hours dialysis
Description: Experimental operation: 995 μL of blank plasma of each genus was taken, 5 μL of working solution of test compound (400 μM) or working solution of warfarin (400 μM) was added, so that the final concentrations of the test compound and warfarin in the plasma sample was 2 μM. The sample was mixed thoroughly. The final concentration of the organic phase DMSO was 0.5%; 50 μL of plasma samples of the test compound and warfarin were pipetted into the sample receiving plate (three parallels), and the corresponding volume of the corresponding blank plasma or buffer was immediately added so that the final volume of each sample well was 100 μL, with a volume ratio of 1:1 for plasma: dialysis buffer, and then 500 μL of stop solution was added to these samples, and these samples would be used as a T0 sample for the recovery and stability determination. […] All samples were analyzed by LC/MS/MS after protein precipitation, and the protein binding rate and recovery rate were calculated by the formula: % Unbound=100*F/T, % Bound=100−% Unbound, % Recovery 100*(F+T) T0 (where F was the peak area ratio of the compound in the dialysate after 4 hours of dialysis; T was the peak area ratio of the compound in the plasma after 4 hours of dialysis, and T0 was the peak area ratio of the compound in the plasma sample at zero time).

[4] = IV, 0.49 mg/kg (002), 0.5 mg/kg (003B)

AUC(0-inf) [1, 4]: 0.684 µM·h
C0 [1, 4]: 1710 nM
Vd [1, 4]: 1.5 L/kg
clearance [1, 4]: 25.6 mL/min/kg
half-life [1, 4]: 58.2 min
AUC(0-inf) ([1]; PO, 2.0 mg/kg): 2.25 µM·h
Cmax ([1]; PO, 2.0 mg/kg): 1140 nM
Tmax ([1]; PO, 2.0 mg/kg): 30 min
bioavailability ([1]; PO, 2.0 mg/kg): 82.2%
half-life ([1]; PO, 2.0 mg/kg): 42.6 min
CLint scaled at 1 μM [2]: 702 mL/min/kg
CLint scaled at 1 μM [3]: 130 mL/min/kg
IC50 (BTK kinase): 1.65 nM
Unbound PPB (plasma proteins): 4.1%
Structure (SMILES): Nc1nccc2c1n(-c1ccc(Oc3ccccc3)cc1)c(=O)n2[C@@H]1CCCN(C(=O)/C=C/CF)C1 [Compound 002]
